Source: patent US20240083857A1, “2-Methyl-Quinazolines” (Bayer Pharma Aktiengesellschaft, priority 2017, published 2024)
pIC50: −log10 of the molar value.

Columns and labels:
[1] = target: human SOS1 (loading of human K-Ras^G12C-GDP with fluorescent GTP-analog) (Homo sapiens, UniProt Q07889); assay: Biochemical assay 3: K-Ras^G12C activation assay by hSOS1 (HTRF); settings: E-notation values; unit inferred; read-out: Assay 3 (KRAS-Activation) IC50
[2] = target: K-Ras^G12C : hSOS1 interaction (Homo sapiens, UniProt Q07889); assay: Biochemical assay 1: K-Ras^G12C interaction assay with hSOS1 (HTRF); type: binding; settings: E-notation values; unit inferred; read-out: Assay 1 (KRAS-SOS interaction) IC50

## COc1cc(C)c2nc(C)nc(N[C@H](C)c3cccc(Cl)c3)c2c1 [Example 396, N-[(1R)-1-(3-chlorophenyl)ethyl]-6-methoxy-2,8-dimethylquinazolin-4-amine]
[1]
  pIC50: 5.50
[2]
  pIC50: 5.65

## COc1cc2nc(C)nc(NC(C)c3ccc(-c4cccc(Cl)c4CN)s3)c2cc1OC (stereo not drawn) [Example 397, N-[1-{5-[2-(aminomethyl)-3-chlorophenyl]thiophen-2-yl}ethyl]-6,7-dimethoxy-2-methylquinazolin-4-amine]
[1]
  pIC50: 6.60
[2]
  pIC50: 6.53

## COc1cc2nc(C)nc(NC(C)c3ccc(-c4ccc(Cl)cc4CN)s3)c2cc1OC (stereo not drawn) [Example 398, N-[1-{5-[2-(aminomethyl)-4-chlorophenyl]thiophen-2-yl}ethyl]-6,7-dimethoxy-2-methylquinazolin-4-amine]
[1]
  pIC50: 7.14
[2]
  pIC50: 6.98

## COc1cc2nc(C)nc(NC(C)c3cc(C)c(-c4ccc(F)cc4CN)s3)c2cc1OC (stereo not drawn) [Example 399, N-(1-{5-[2-(aminomethyl)-4-fluorophenyl]-4-methyl-2-thienyl}ethyl)-6,7-dimethoxy-2-methylquinazolin-4-amine]
[1]
  pIC50: 6.53
[2]
  pIC50: 6.48

## COc1cc2nc(C)nc(NC(C)c3cc(C)c(-c4ccccc4CN(C)C)s3)c2cc1OC (stereo not drawn) [Example 400, N-[1-(5-{2-[(dimethylamino)methyl]phenyl}-4-methyl-2-thienyl)ethyl]-6,7-dimethoxy-2-methylquinazolin-4-amine]
[1]
  pIC50: 7.12
[2]
  pIC50: 7.10

## COc1cc2nc(C)nc(NC(C)c3cc(C)c(-c4ccccc4CN(C)CCO)s3)c2cc1OC (stereo not drawn) [Example 401, 2-{[2-(5-{1-[(6,7-dimethoxy-2-methylquinazolin-4-yl)amino]ethyl}-3-methyl-2-thienyl)benzyl](methyl)amino}ethanol]
[1]
  pIC50: 7.08
[2]
  pIC50: 7.12

## CNCc1ccccc1-c1sc(C(C)Nc2nc(C)nc3cc(OC)c(OC)cc23)cc1C (stereo not drawn) [Example 402, 6,7-di methoxy-2-methyl-N-[1-(4-methyl-5-{2-[(methylamino)methyl]phenyl}thiophen-2-yl)ethyl]quinazolin-4-amine]
[1]
  pIC50: 7.01
[2]
  pIC50: 7.08

## COc1cc2nc(C)nc(NC(C)c3ccc(-c4ccccc4C(O)CO)s3)c2cc1OC (stereo not drawn) [Example 403]
[1]
  pIC50: 6.20
[2]
  pIC50: 6.35

## Cc1ccc2nc(C)nc(N[C@H](C)c3cccc(Cl)c3)c2c1 [Example 404, N-[(1R)-1-(3-chlorophenyl)ethyl]-2,6-dimethylquinazolin-4-amine]
[1]
  pIC50: 5.03
[2]
  pIC50: 5.33

## Cc1nc(N[C@H](C)c2cccc(Cl)c2)c2cc(-c3cn[nH]c3)ccc2n1 [Example 405, N-[(1R)-1-(3-chlorophenyl)ethyl]-2-methyl-6-(1H-pyrazol-4-yl)quinazolin-4-amine]
[1]
  pIC50: 5.88
[2]
  pIC50: 5.95

## Cc1nc(N[C@H](C)c2cccc(Cl)c2)c2cc(-c3cnn(C)c3)ccc2n1 [Example 406, N-[(1R)-1-(3-chlorophenyl)ethyl]-2-methyl-6-(1-methyl-1H-pyrazol-4-yl)quinazolin-4-amine]
[1]
  pIC50: 6.07
[2]
  pIC50: 6.14

## Cc1nc(N[C@H](C)c2cccc(Cl)c2)c2cc(C3CC3)ccc2n1 [Example 407, N-[(1R)-1-(3-chlorophenyl)ethyl]-6-cyclopropyl-2-methylquinazolin-4-amine]
[1]
  pIC50: 5.67
[2]
  pIC50: 5.90

## COc1cc2nc(C)nc(NC(C)c3ccc(-c4c(Cl)cccc4CNC(=O)OC(C)(C)C)s3)c2cc1OC (stereo not drawn) [Example 408, tert-butyl [3-chloro-2-(5-{1-[(6,7-dimethoxy-2-methylquinazolin-4-yl)amino]ethyl}thiophen-2-yl)benzyl]carbamate]
[1]
  pIC50: 5.99
[2]
  pIC50: 6.27

## COc1cc2nc(C)nc(NC(C)c3ccc(-c4c(Cl)cccc4CN)s3)c2cc1OC (stereo not drawn) [Example 409, N-[1-{5-[2-(aminomethyl)-6-chlorophenyl]thiophen-2-yl}ethyl]-6,7-dimethoxy-2-methylquinazolin-4-amine]
[1]
  pIC50: 7.50
[2]
  pIC50: 7.31

## COc1cc2nc(C)nc(NC(C)c3ccc(-c4ccnc(O)c4)s3)c2cc1OC (stereo not drawn) [Example 410, 4-(5-{1-[(6,7-dimethoxy-2-methylquinazolin-4-yl)amino]ethyl}-2-thienyl)pyridin-2-ol]
[1]
  pIC50: < 4.70
[2]
  pIC50: 5.37

## COc1cc2nc(C)nc(NC(C)c3ccc(-c4ccccc4C4CC(=O)N4)s3)c2cc1OC (stereo not drawn) [Example 411, 4-[2-(5-{1-[(6,7-dimethoxy-2-methylquinazolin-4-yl)amino]ethyl}thiophen-2-yl)phenyl]azetidin-2-one]
[1]
  pIC50: < 4.70
[2]
  pIC50: 4.84

## COc1cc2nc(C)nc(NC(C)c3ccc(-c4ccc(C#N)cc4CN(C)C)s3)c2cc1OC (stereo not drawn) [Example 413, 4-(5-{1-[(6,7-dimethoxy-2-methylquinazolin-4-yl)amino]ethyl}thiophen-2-yl)-3-[(dimethylamino)methyl]benzonitrile]
[1]
  pIC50: 6.67
[2]
  pIC50: 6.65

## Cc1nc(NC(C)c2ccc(Br)s2)c2cc(N3CCC(N(C)C)C3)ccc2n1 (stereo not drawn) [Example 414, N-[1-(5-bromothiophen-2-yl)ethyl]-6-[3-(dimethylamino)pyrrolidin-1-yl]-2-methylquinazolin-4-amine]
[1]
  pIC50: 5.84
[2]
  pIC50: 5.86

## Cc1nc(NC(C)c2ccc(Br)s2)c2cc(N3CCN(C)CC3)ccc2n1 (stereo not drawn) [Example 416, N-[1-(5-bromothiophen-2-yl)ethyl]-2-methyl-6-(4-methylpiperazin-1-yl)quinazolin-4-amine]
[1]
  pIC50: 5.94
[2]
  pIC50: 6.06

## Cc1nc(NC(C)c2ccc(-c3ccccc3CN(C)C)s2)c2cc(N3CCN(C)CC3)ccc2n1 (stereo not drawn) [Example 417, N-[1-(5-{2-[(dimethylamino)methyl]phenyl}thiophen-2-yl)ethyl]-2-methyl-6-(4-methylpiperazin-1-yl)quinazolin-4-amine]
[1]
  pIC50: 7.45
[2]
  pIC50: 7.34

## Cc1nc(NC(C)c2ccc(-c3ccccc3CN(C)C)s2)c2cc(N3CCC(N(C)C)C3)ccc2n1 (stereo not drawn) [Example 418, N-[1-(5-{2-[(dimethylamino)methyl]phenyl}thiophen-2-yl)ethyl]-6-[3-(dimethylamino)pyrrolidin-1-yl]-2-methylquinazolin-4-amine]
[1]
  pIC50: 7.35
[2]
  pIC50: 7.06

## Cc1nc(NC(C)c2ccc(Br)s2)c2cc(N3CCCC3)ccc2n1 (stereo not drawn) [Example 419, N-[1-(5-bromothiophen-2-yl)ethyl]-2-methyl-6-(pyrrolidin-1-yl)quinazolin-4-amine]
[1]
  pIC50: 4.84
[2]
  pIC50: 5.19

## CC(=O)Nc1ccc2nc(C)nc(NC(C)c3ccc(-c4ccccc4CN(C)C)s3)c2c1 (stereo not drawn) [Example 420, N-(4-{[1-(5-{2-[(dimethylamino)methyl]phenyl}thiophen-2-yl)ethyl]amino}-2-methylquinazolin-6-yl)acetamide]
[1]
  pIC50: 6.24
[2]
  pIC50: 6.52

## COc1ccc(-c2ccc(C(C)Nc3nc(C)nc4cc(OC)c(OC)cc34)s2)c(C)c1 (stereo not drawn) [Example 422, 6,7-dimethoxy-N-{1-[5-(4-methoxy-2-methylphenyl)thiophen-2-yl]ethyl}-2-methylquinazolin-4-amine]
[1]
  pIC50: 5.44
[2]
  pIC50: 5.83

## Cc1nc(NC(C)c2ccc(-c3ccccc3CN(C)C)s2)c2cc(N)ccc2n1 (stereo not drawn) [Example 423, N4-[1-(5-{2-[(dimethylamino)methyl]phenyl}-2-thienyl)ethyl]-2-methylquinazoline-4,6-diamine]
[1]
  pIC50: 6.52
[2]
  pIC50: 6.69

## Cc1nc(NC(C)c2ccc(Br)s2)c2cc(N3CCN(Cc4cccnc4)CC3)ccc2n1 (stereo not drawn) [Example 424, N-[1-(5-bromothiophen-2-yl)ethyl]-2-methyl-6-[4-(pyridin-3-ylmethyl)piperazin-1-yl]quinazolin-4-amine]
[1]
  pIC50: 5.42
[2]
  pIC50: 5.80

## Cc1nc(NC(C)c2ccc(Br)s2)c2cc(NCCN3CCOCC3)ccc2n1 (stereo not drawn) [Example 425, N4-[l-(5-bromo-2-thienyl)ethyl]-2-methyl-N6-[2-(morpholin-4-yl)ethyl]quinazoline-4,6-diamine]
[1]
  pIC50: 4.95
[2]
  pIC50: 5.24

## Cc1nc(NC(C)c2ccc(-c3ccccc3CN(C)C)s2)c2cc(N3CCN(Cc4cccnc4)CC3)ccc2n1 (stereo not drawn) [Example 426, N-[1-(5-{2-[(dimethylamino)methyl]phenyl}thiophen-2-yl)ethyl]-2-methyl-6-[4-(pyridin-3-ylmethyl)piperazin-1-yl]quinazolin-4-amine]
[1]
  pIC50: 7.50
[2]
  pIC50: 7.48

## CC(=O)NCCNc1ccc2nc(C)nc(NC(C)c3ccc(-c4ccccc4CN(C)C)s3)c2c1 (stereo not drawn) [Example 427, N-{2-[(4-{[1-(5-{2-[(dimethylamino)methyl]phenyl}thiophen-2-yl)ethyl]amino}-2-methylquinazolin-6-yl)amino]ethyl}acetamide]
[1]
  pIC50: 7.13
[2]
  pIC50: 7.23

## COc1cc2nc(C)nc(NC(C)c3sc(Br)cc3Cl)c2cc1OC (stereo not drawn) [Example 428, N-[1-(5-bromo-3-chlorothiophen-2-yl)ethyl]-6,7-dimethoxy-2-methylquinazolin-4-amine]
[1]
  pIC50: 5.99
[2]
  pIC50: 6.04

## COc1cc2nc(C)nc(NC(C)c3sc(-c4ccccc4CNC(=O)OC(C)(C)C)cc3Cl)c2cc1OC (stereo not drawn) [Example 429, tert-butyl [2-(4-chloro-5-{1-[(6,7-dimethoxy-2-methylquinazolin-4-yl)amino]ethyl}thiophen-2-yl)benzyl]carbamate]
[1]
  pIC50: 5.30
[2]
  pIC50: 5.22

## COc1cc2nc(C)nc(NC(C)c3cc(Cl)c(-c4ccccc4CN)s3)c2cc1OC (stereo not drawn) [Example 430, N-[1-{5-[2-(aminomethyl)phenyl]-4-chlorothiophen-2-yl}ethyl]-6,7-dimethoxy-2-methylquinazolin-4-amine]
[1]
  pIC50: 6.23
[2]
  pIC50: 6.23

## COc1cc2nc(C)nc(NC(C)c3cc(Cl)c(-c4ccccc4CN(C)C)s3)c2cc1OC (stereo not drawn) [Example 431, N-[1-(4-chloro-5-{2-[(dimethylamino)methyl]phenyl}thiophen-2-yl)ethyl]-6,7-dimethoxy-2-methylquinazolin-4-amine]
[1]
  pIC50: 6.52
[2]
  pIC50: 6.49
